From patent EP1715036A1, “Crystal structure of an Aurora-B/INCENP complex” (Boehringer Ingelheim International GmbH, priority 2005, dated 2006)
pIC50: −log10 of the molar value.

Columns and labels:
Type in all cases: biochemical
monomeric human Aurora-B = monomeric human Aurora-B (Homo sapiens, UniProt Q96GD4); experiment: kinase assay on monomeric human Aurora-B; conditions: assay conditions which allow similar signal/noise ratios
[1] = target: T1, G96V-Aurora-B^60-361/INCENP^790-847 (Xenopus laevis, UniProt Q6DE08, G96V); experiment: radioactive kinase filterbinding assay, IC50 determination; conditions: G96V enzyme complex at 5 nM; 100 µM ATP, 10 µM substrate peptide; spread printed ±13 nM
T1 construct: GST (N, cleaved yes); made in house; host or cells: E. coli BL21(DE3) with pUBS520 helper plasmid
Protocol: (§1) The ATP-KM value for the G96V mutant (83 µM) is similar to the wt enzyme (61 µM). The kinase assays are run in the presence of 100 µM ATP using 10 µM of a substrate peptide (see Materials and Methods).
(§2) Hesperadin is a potent inhibitor of human Aurora-B (Hauf, 2003). To determine whether Hesperadin inhibits also xAurora-B /INCENP complexes, a kinase filterbinding assay is employed for IC50-determinations. Both, the G96V and the wt enzyme complex are used at 5 nM concentration in the assays.
(§3) Purified xAurora-B/INCENP is snap frozen and stored for further use at -80°C in desalting buffer (50 mM Tris/Cl pH 8.0, 150mM NaCl, 0.1mM EDTA, 0.03% Brij-35, 10% glycerol, 1mM DTT). xAurora-B/INCENP is incubated in the presence or absence of a test compound dilutions in DMSO prior to addition of substrate peptide and P33-γ-ATP. Samples without a test compound or without substrate peptide are used as high or low-controls, respectively. IC50 values are determined using Graph Pad Prism software.
(§4) For the filter-binding kinase assay (reaction volume 50 ul /well), 96-well PP-Microplates (Greiner, 655 201) are used. To 10µl compound in 25% DMSO are added 30µl PROTEIN-MIX (166 µM ATP,1x kinase buffer [50mM Tris/Cl pH7.5,25mM MgC12, 25mM NaCl], 10-20 ng xAurora-B/INCENP) followed by an 15 min incubation at room temperature (agitating, 350rpm). […]

[2] = target: T2, wt-Aurora-B^60-361/INCENP^790-847 (Xenopus laevis, UniProt Q6DE08); experiment: as above; conditions: wt enzyme complex at 5 nM; 100 µM ATP, 10 µM substrate peptide; spread printed ± 2 nM
T2 construct: GST (N, cleaved yes); made in house; host or cells: E. coli BL21(DE3) with pUBS520 helper plasmid
Protocol: as §1, §2, §3, §4

T1 sequence (Q6DE08 60-361 G96V): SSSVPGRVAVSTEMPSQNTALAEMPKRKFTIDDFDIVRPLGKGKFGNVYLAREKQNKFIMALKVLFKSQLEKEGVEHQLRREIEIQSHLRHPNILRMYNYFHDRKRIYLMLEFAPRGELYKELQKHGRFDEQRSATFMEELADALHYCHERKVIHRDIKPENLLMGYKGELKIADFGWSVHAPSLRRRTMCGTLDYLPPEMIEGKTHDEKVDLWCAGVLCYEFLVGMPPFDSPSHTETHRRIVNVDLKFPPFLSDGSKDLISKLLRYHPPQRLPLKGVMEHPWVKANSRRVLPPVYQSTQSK
T1 sequence (O13024 790-847 partner limits assumed): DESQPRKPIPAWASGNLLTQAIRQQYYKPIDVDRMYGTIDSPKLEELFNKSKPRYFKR
T2 sequence (Q6DE08 60-361): as the sequence (Q6DE08 60-361 G96V) above, with V37G counted along it
T2 sequence (O13024 790-847 partner limits assumed): as the sequence (O13024 790-847 partner limits assumed) above
Sequence of monomeric human Aurora-B (Q96GD4 whole entry): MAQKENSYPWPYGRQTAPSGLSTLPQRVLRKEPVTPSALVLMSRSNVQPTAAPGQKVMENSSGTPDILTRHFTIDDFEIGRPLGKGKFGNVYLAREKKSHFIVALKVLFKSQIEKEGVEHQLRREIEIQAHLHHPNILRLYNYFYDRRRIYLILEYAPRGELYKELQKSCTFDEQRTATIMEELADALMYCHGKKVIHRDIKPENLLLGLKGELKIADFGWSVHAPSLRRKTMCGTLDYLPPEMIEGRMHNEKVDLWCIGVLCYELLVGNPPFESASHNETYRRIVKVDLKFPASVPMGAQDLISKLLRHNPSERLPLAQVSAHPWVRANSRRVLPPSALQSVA

`CCS(=O)(=O)Nc1ccc2c(c1)/C(=C(/Nc1ccc(CN3CCCCC3)cc1)c1ccccc1)C(=O)N2` [Hesperadin] was tested. Which pIC50 (monomeric human Aurora-B) did it give?
Its pIC50 is 7.36.

What about the pIC50 [1] of the same compound?
Its pIC50 is 7.60.

What about the pIC50 [2] of the same compound?
The pIC50 was 8.15.
